Data: patent EP4043466B1, “PRC2 INHIBITORS” (Mirati Therapeutics, Inc., priority 2018, dated 2019)

Key:
[1] = target: purified human, His-tagged PRC2 complex (Homo sapiens, UniProt O75530+Q15910); experiment: Hot Spot HMT assay: inhibition of PRC2 enzymatic activity (transfer of tritiated methyl from SAM to core histone, filter binding); format: biochemical; conditions: Inhibition of PRC2-mediated enzymatic activity; 10 nM PRC2 complex, 0.05 mg/ml core histone H3, 1 uM 3H-SAM, 1 hr at 30°C
Outline: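 Serial compound dilutions starting at 1.0 µM were pre-incubated 20 min at 30°C with 10 nM complex (His-EZH2, Flag-EED, His-SUZ12, His-AEBP2, His-RbAp48) and 0.05 mg/ml core H3. Reaction ran 1 hr at 30°C after adding 1 uM [3H]-SAM; scintillation counting followed filtration.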

[2] = system: PRC2-mediated histone H3 methylation; experiment: Tri-Methyl Histone H3 (Lys 27) Sandwich ELISA in Pfeiffer cells: inhibition of PRC2-mediated histone H3 methylation; format: cell-based, human; conditions: Homo sapiens; Inhibition of EZH2-mediated histone H3 trimethylation; Pfeiffer cells (EZH2 A677G), 96 hours incubation
Excerpt: The Pfeiffer cell line was established from a […] from a patient having metastatic diffuse large B-cell lymphoma (DLBCL). This cell line expresses a mutant form of the EZH2 enzyme (A677G) that results in enhanced EZH2 activity leading to increased methylation of histone H3 Lys27. Increased trimethylation of histone H3 Lys27 is believed to be implicated in tumorgenesis and poor clinical prognosis in lymphomas (McCabe et al., (2012) Nature 492:108-112).
Inhibition of PRC2-mediated histone H3 methylation by compounds of Formula (I) was measured by ELISA using a Tri-Methyl Histone H3 (Lys 27) Sandwich ELISA Kit (Cell Signaling Tech #7866C) in accordance with the manufacturer's instructions. Briefly, Pfeiffer cells were cultured in RPMI medium supplemented with 10% fetal bovine serum and 1% penicillin and 1% streptomycin in 96 well culture plates at 37°C to a density of 8000 cells/90µl/well and the cells were harvested. A series of 3-fold serial dilutions of each test compound of Formula (I) were prepared in RPMI medium and added to the cells at final concentrations ranging from 1µM to 0.15 nM. The plates were incubated at 37°C for 96 hours.
After incubation, the cells were pelleted by centrifugation in a pre-cooled 4°C rotor at 1, 100 rpm for 10 min and the supernatant was removed by aspiration. The cell pellet was resuspended in 55µl of Lysis Buffer (0.4M HCl) and incubated on ice with periodic shaking for 30 minutes. The lysed cells were subjected to centrifugation at 4, 200 rpm for 10 min at 4°C and the supernatant containing acid-soluble proteins was collected and the remainder discarded. The acid-soluble proteins were brought to a neutral pH by the addition of 20 µl of Neutralization Buffer (1 M Sodium phosphate, dibasic (pH 12.5), 2.5 mM DTT and 1 mM PMSF) and the neutralized lysates were analyzed by ELISA.
A 65 µl aliquot of each cell lysate was added to a well of a microwell strip, the microwells were sealed using tape and incubated either at 37°C for two hours or at 4°C overnight. After incubation, the tape was removed at the microwells were washed four times using 200 µl of 1X Wash Buffer. To each washed microwell, a 100 µl aliquot of an antitrimethyl histone H3 Lys27 Detection Antibody solution was added and the microwells were incubated at 37°C for one hour. The Detection Antibody solution was removed by aspiration and the wells were washed four times each using 200 µl of 1X Wash Buffer.
A 100 µl aliquot of an HRP-linked secondary antibody was added to each well, the wells were sealed with tape and incubated at 37°C for 30 min. The HRP-linked secondary antibody solution was removed by aspiration and the wells were washed four times using 200 µl of 1X Wash Buffer. A 100 µl aliquot of a TMB substrate was added to each well, the wells were sealed with tape and incubated at 37°C for 10 min or 25°C for 30 min. The reaction was stopped by the addition of 100 µl aliquot of a STOP solution and the plate was shaken briefly. The degree of histone H3 trimethylation was determined using a spectrophotometric readout by measuring the absorbance at 450 nm and then calculating the amount of trimethylated histone H3. A = ≤100 nM; B = >100 nM - ≤500 nM; C = >500 nM and N.D. = not determined.

Karpas 422 cells = experiment: Karpas 422 cell viability, CTG (Cell Titre Glo) assay; format: cell-based, human; conditions: Homo sapiens; Inhibition of proliferation of Karpas 422 cells (EZH2 Y641N); viability measured Day 4, Day 7 or Day 11, time point of the tabulated values not stated
Outline: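 CellTiter-Glo viability IC50s taken at Day 4, Day 7 and Day 11 of continuous compound exposure (3-fold series, 10µM top, 1.5nM lowest) in RPMI/20% FBS at 37 °C. Y641N-mutant EZH2 lymphoma line seeded at 1000 cells per well; medium and compound replaced on Day 7 for Day 11 read.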

Chain of purified human, His-tagged PRC2 complex (Q15910 whole entry): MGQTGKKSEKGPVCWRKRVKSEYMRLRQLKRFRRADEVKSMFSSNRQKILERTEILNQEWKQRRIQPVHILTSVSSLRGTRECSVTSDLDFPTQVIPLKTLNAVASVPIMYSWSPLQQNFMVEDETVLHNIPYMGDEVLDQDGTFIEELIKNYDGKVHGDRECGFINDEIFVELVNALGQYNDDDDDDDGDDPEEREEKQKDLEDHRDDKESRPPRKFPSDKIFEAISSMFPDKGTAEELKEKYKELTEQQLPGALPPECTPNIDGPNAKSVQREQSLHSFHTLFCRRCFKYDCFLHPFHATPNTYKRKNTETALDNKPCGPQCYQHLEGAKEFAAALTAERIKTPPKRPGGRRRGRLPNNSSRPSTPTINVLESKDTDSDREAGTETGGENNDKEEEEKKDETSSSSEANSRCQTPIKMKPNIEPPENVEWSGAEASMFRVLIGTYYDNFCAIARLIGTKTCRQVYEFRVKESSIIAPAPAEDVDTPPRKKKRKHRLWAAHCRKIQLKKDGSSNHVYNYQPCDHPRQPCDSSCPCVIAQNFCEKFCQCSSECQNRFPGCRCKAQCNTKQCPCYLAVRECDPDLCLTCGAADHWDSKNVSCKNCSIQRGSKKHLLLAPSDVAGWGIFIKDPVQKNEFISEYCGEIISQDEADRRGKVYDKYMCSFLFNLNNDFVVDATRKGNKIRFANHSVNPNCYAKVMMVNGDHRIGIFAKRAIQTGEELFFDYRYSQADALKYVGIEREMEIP
Chain of purified human, His-tagged PRC2 complex (O75530 whole entry): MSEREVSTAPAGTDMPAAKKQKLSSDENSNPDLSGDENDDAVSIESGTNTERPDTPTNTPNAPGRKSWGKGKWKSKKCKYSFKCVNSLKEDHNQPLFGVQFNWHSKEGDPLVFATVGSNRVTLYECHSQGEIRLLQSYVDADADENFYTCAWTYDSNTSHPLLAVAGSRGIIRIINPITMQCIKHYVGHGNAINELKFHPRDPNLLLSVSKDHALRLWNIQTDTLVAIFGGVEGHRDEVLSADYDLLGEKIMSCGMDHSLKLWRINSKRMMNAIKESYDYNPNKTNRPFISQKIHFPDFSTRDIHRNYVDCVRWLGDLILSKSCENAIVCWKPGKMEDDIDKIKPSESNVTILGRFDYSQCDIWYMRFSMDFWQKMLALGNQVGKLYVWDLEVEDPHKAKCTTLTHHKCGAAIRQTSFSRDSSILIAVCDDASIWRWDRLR
Chain of purified human, His-tagged PRC2 complex (Q15022 whole entry partner): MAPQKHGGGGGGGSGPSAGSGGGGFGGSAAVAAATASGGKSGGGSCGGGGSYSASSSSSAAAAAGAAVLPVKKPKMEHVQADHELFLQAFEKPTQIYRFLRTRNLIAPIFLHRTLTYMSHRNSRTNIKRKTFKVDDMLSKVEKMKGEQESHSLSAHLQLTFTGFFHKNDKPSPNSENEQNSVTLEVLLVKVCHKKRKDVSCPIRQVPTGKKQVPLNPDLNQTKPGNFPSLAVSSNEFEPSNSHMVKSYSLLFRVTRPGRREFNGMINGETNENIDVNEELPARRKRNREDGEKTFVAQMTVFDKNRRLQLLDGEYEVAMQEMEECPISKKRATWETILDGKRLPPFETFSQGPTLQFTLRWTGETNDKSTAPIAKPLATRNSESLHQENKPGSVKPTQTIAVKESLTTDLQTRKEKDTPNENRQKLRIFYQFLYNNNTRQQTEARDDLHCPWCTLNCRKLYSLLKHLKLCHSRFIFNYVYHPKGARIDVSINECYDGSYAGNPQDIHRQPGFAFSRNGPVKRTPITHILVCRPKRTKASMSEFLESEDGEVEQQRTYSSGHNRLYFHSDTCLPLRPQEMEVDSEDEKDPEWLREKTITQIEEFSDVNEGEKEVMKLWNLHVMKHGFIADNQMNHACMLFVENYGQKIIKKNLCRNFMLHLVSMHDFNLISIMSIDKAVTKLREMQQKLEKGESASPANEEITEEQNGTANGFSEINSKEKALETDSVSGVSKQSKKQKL
Chain of purified human, His-tagged PRC2 complex (Q6ZN18 whole entry partner): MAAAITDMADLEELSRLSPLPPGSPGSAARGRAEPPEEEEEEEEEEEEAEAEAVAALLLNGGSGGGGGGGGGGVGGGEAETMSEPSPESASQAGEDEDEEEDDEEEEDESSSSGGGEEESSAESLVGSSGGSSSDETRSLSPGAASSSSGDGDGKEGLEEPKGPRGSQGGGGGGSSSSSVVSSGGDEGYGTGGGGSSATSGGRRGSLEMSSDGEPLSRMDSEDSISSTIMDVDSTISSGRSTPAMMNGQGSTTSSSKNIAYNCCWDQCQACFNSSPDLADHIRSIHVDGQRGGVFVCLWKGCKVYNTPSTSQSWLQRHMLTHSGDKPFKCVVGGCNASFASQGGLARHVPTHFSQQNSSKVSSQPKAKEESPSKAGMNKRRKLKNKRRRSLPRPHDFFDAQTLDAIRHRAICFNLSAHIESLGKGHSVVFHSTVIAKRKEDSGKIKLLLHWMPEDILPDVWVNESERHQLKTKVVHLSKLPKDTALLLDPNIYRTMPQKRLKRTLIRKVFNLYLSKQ
Chain of purified human, His-tagged PRC2 complex (Q09028 whole entry partner): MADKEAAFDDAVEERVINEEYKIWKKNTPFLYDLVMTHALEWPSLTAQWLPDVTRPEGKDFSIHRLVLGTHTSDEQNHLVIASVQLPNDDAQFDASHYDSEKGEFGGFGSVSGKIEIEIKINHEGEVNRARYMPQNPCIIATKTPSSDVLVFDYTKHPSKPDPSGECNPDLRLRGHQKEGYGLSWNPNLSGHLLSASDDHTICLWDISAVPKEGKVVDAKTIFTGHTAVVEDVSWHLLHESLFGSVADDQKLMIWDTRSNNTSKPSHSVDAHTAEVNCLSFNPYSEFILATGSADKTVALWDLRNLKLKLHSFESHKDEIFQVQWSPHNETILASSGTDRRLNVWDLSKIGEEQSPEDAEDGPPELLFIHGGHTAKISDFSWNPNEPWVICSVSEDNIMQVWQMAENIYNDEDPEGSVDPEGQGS

Structure (SMILES)	IC50 [1]	IC50 [2]	IC50 (Karpas 422 cells)
CNCc1ccc(-c2cnc(NCc3c(F)ccc4c3CCO4)n3cc(C#N)nc23)cc1 [Example 185, 5-(((5-fluoro-2,3-dihydrobenzofuran-4-yl)methyl)amino)-8-(4-((methylamino)methyl)phenyl)imidazo[1,2-c]pyrimidine-2-carbonitrile]	< 0.1 µM	≤ 0.1 µM	≤ 0.25 µM
CN1CCOCC1c1ccc(-c2cnc(NCc3c(F)ccc4c3CCO4)n3cc(C#N)nc23)cc1 (stereo not drawn) [Example 227, 5-(((5-fluoro-2,3-dihydrobenzofuran-4-yl)methyl)amino)-8-(4-(4-methylmorpholin-3-yl)phenyl)imidazo[1,2-c]pyrimidine-2-carbonitrile]	< 0.1 µM	0.1 to 0.5 µM	≤ 0.25 µM
CN(C)Cc1ccc(-c2cnc(NCc3c(F)ccc4c3CCO4)n3cc(C#N)nc23)cc1C#N [Example 201, 8-(3-cyano-4-((dimethylamino)methyl)phenyl)-5-(((5-fluoro-2,3-dihydrobenzofuran-4-yl)methyl)amino)imidazo[1,2-c]pyrimidine-2-carbonitrile]	< 0.1 µM	0.1 to 0.5 µM	≤ 0.25 µM
Cc1cc(C(=O)N(C)C)ncc1-c1cnc(NCc2c(F)ccc3c2CCO3)n2cc(C#N)nc12 [Example 76, 5-(2-cyano-5-(((5-fluoro-2,3-dihydrobenzofuran-4-yl)methyl)amino)imidazo[1,2-c]pyrimidin-8-yl)-N,N,4-trimethylpicolinamide]	< 0.1 µM	≤ 0.1 µM	≤ 0.25 µM
Cc1cc(-c2cnc(NCc3c(F)ccc4c3CCO4)n3cc(C(=O)O)nc23)n(C)n1 [Example 1, 8-(1,3-dimethyl-1H-pyrazol-5-yl)-5-(((5-fluoro-2,3-dihydrobenzofuran-4-yl)methyl)amino)imidazo[1,2-c]pyrimidine-2-carboxylic acid]		> 0.5 µM	> 0.5 µM
CN(C)C(=O)c1cc(F)c(-c2cnc(NCc3c(F)ccc4c3CCO4)n3cc(C#N)nc23)cc1F [Example 38, 4-(2-cyano-5-(((5-fluoro-2,3-dihydrobenzofuran-4-yl)methyl)amino)imidazo[1,2-c]pyrimidin-8-yl)-2,5-difluoro-N,N-dimethylbenzamide]	< 0.1 µM	≤ 0.1 µM	≤ 0.25 µM
CN1CCN(C(=O)c2cc(-c3cnc(NCc4c(F)ccc5c4CCO5)n4cc(C#N)nc34)n(C)n2)CC1 [Example 229, 5-(((5-fluoro-2,3-dihydrobenzofuran-4-yl)methyl)amino)-8-(1-methyl-3-(4-methylpiperazine-1-carbonyl)-1H-pyrazol-5-yl)imidazo[1,2-c]pyrimidine-2-carbonitrile]	< 0.1 µM	≤ 0.1 µM	≤ 0.25 µM
Cn1nc(C#N)cc1-c1cnc(NCc2c(F)ccc3c2CCO3)n2cc(C#N)nc12 [Example 212, 8-(3-cyano-1-methyl-1H-pyrazol-5-yl)-5-(((5-fluoro-2,3-dihydrobenzofuran-4-yl)methyl)amino)imidazo[1,2-c]pyrimidine-2-carbonitrile]	< 0.1 µM	≤ 0.1 µM	≤ 0.25 µM
N#Cc1cn2c(NCc3c(F)ccc4c3CCO4)ncc(-c3cccc(C(=O)O)c3)c2n1 [Example 174, 3-(2-cyano-5-(((5-fluoro-2,3-dihydrobenzofuran-4-yl)methyl)amino)imidazo[1,2-c]pyrimidin-8-yl)benzoic acid]	< 0.1 µM	> 0.5 µM	> 0.5 µM
Cc1ncccc1-c1cnc(NCc2c(F)ccc3c2CCO3)n2cc(C(N)=O)nc12 [Example 137, 5-(((5-fluoro-2,3-dihydrobenzofuran-4-yl)methyl)amino)-8-(2-methylpyridin-3-yl)imidazo[1,2-c]pyrimidine-2-carboxamide]	< 0.1 µM	0.1 to 0.5 µM	≤ 0.25 µM
Cc1cc(C2CCCN2)ccc1-c1cnc(NCc2c(F)ccc3c2CCO3)n2cc(C#N)nc12 (single isomer, unassigned) [Example 213, 5-(((5-fluoro-2,3-dihydrobenzofuran-4-yl)methyl)amino)-8-(2-methyl-4-(pyrrolidin-2-yl)phenyl)imidazo[1,2-c]pyrimidine-2-carbonitrile]		0.1 to 0.5 µM	≤ 0.25 µM
Cn1nc(C(=O)N2CCOCC2)cc1-c1cnc(NCc2c(F)ccc3c2CCO3)n2cc(C#N)nc12 [Example 209, 5-(((5-fluoro-2,3-dihydrobenzofuran-4-yl)methyl)amino)-8-(1-methyl-3-(morpholine-4-carbonyl)-1H-pyrazol-5-yl)imidazo[1,2-c]pyrimidine-2-carbonitrile]		≤ 0.1 µM	≤ 0.25 µM
Cc1ncccc1-c1cnc(NCc2c(F)ccc3c2CCO3)n2cc(C(=O)O)nc12 [Example 2, 5-(((5-fluoro-2,3-dihydrobenzofuran-4-yl)methyl)amino)-8-(2-methylpyridin-3-yl)imidazo[1,2-c]pyrimidine-2-carboxylic acid]		> 0.5 µM	> 0.5 µM

More lines, now with the values ahead:

IC50 [1]	IC50 [2]	IC50 (Karpas 422 cells)	Structure (SMILES)
< 0.1 µM	0.1 to 0.5 µM	≤ 0.25 µM	CNC(=O)c1cc(-c2cnc(NCc3c(F)ccc4c3CCO4)n3cc(C#N)nc23)n(C)n1 [Example 208, 5-(2-cyano-5-(((5-fluoro-2,3-dihydrobenzofuran-4-yl)methyl)amino)imidazo[1,2-c]pyrimidin-8-yl)-N, 1-dimethyl-1H-pyrazole-3-carboxamide]
< 0.1 µM	0.1 to 0.5 µM	≤ 0.25 µM	Cc1ncc(-c2cnc(NCc3c(F)ccc4c3CCO4)n3cc(C#N)nc23)cn1 [Example 69, 5-(((5-fluoro-2,3-dihydrobenzofuran-4-yl)methyl)amino)-8-(2-methylpyrimidin-5-yl)imidazo[1,2-c]pyrimidine-2-carbonitrile]
0.1 to 0.5 µM	> 0.5 µM	> 0.5 µM	N#Cc1cn2c(NCc3c(F)ccc4c3CCO4)ncc(C3CC3)c2n1 [Example 77, 8-cyclopropyl-5-(((5-fluoro-2,3-dihydrobenzofuran-4-yl)methyl)amino)imidazo[1,2-c]pyrimidine-2-carbonitrile]
0.1 to 0.5 µM	0.1 to 0.5 µM	≤ 0.25 µM	N#Cc1cn2c(NCc3c(F)ccc4c3CCO4)ncc(-c3ccc([C@H]4CCCN4)cc3)c2n1 [Example 220, (R)-5-(((5-fluoro-2,3-dihydrobenzofuran-4-yl)methyl)amino)-8-(4-(pyrrolidin-2-yl)phenyl)imidazo[1,2-c]pyrimidine-2-carbonitrile]
< 0.1 µM	≤ 0.1 µM		N#Cc1cn2c(NCc3c(F)ccc4c3CCO4)ncc(-c3ccc(CN4CC(F)(F)C4)cc3)c2n1 [Example 51, 8-(4-((3,3-difluoroazetidin-1-yl)methyl)phenyl)-5-(((5-fluoro-2,3-dihydrobenzofuran-4-yl)methyl)amino)imidazo[1,2-c]pyrimidine-2-carbonitrile]
< 0.1 µM	≤ 0.1 µM		Cn1nc(C(F)(F)F)cc1-c1cnc(NCc2c(F)ccc3c2CCO3)n2cc(C#N)nc12 [Example 111, 5-(((5-fluoro-2,3-dihydrobenzofuran-4-yl)methyl)amino)-8-(1-methyl-3-(trifluoromethyl)-1H-pyrazol-5-yl)imidazo[1,2-c]pyrimidine-2-carbonitrile]
